System: PDE1
Assay: In vitro HTRF PDE1 inhibition assay
Type: biochemical
Conditions: HTRF cGMP assay, 100 nM cyclic GMP, PDE (1A3, 1B or 1C) with calmodulin, 45 minutes at 37° C.; isoform of the tabulated values not stated
Description: An exemplary procedure for the in vitro Homogenous Time Resolved Fluorescence assay, which can be used to determine the inhibitory action of compounds of the invention toward. PDE1 or its isoforms, follows.
The HTRF PDE1 assay utilized the HTRF (Homogenous Time Resolved Fluorescence) technology, which is based on the competition between unlabeled cyclic nucleotide and cyclic nucleotide labeled with XL665 for the binding to cyclic nucleotide-specific antibody labeled with cryptate. The HTRF signal is thus inversely proportional to the concentration of cyclic nucleotide being measured. Since phosphodiesterases break down cyclic nucleotides the HTRF signal was used to determine PDE activity.
The Cisbio cGMP HTRF assay kit (Cat no: 62GM2PEC) was utilized. Cyclic GMP was diluted to 200 nM in HTRF assay buffer (1 mM CaCl2, 10 mM MgCl2, 10 mM Tris-HCl, 0.1% BSA, pH7.4). 10 μl of compound or DMSO was diluted in 200 nM cyclic GMP solution and added to wells of a 96 well white plate to give 100 nM cyclic GMP in 1% DMSO final concentration. PDE (1A3, 1B or 1C) was diluted to 2× working concentration in HTRF assay buffer with […] Calmodulin, and 10 μl was added to initiate the reaction. The plate was then incubated for 45 minutes at 37° C. d2-Labelled cyclic GMP and anti-cGMP cryptate were diluted in 50 mM phosphate buffer, 0.8M KF, 1% Triton X100, 0.2% BSA, pH7.0. Following incubation 10 μl d2-cGMP, then 10 μl anti cGMP cryptate were added to each well and the plate was incubated for 45 minutes at room temperature. The plate was then read on Perkin Elmer Victor at 2 different FRET readings ex/emm 340 nm/665 nm and 340 nm/615 nm.
Compounds having an IC50 of <1 μM, are denoted as +++. Compounds having an IC50 of 1-10 μM, are denoted as ++. Compounds having an IC50 of >10 μM, are denoted as +.

Structure (SMILES)	IC50
CC1c2nc3c(cnn3C)c(=O)n2CCN1C (racemic) [Compound I-20, (±)-1,8,9-Trimethyl-6,7,8,9-tetrahydropyrazino[1,2-a]pyrazolo[3,4-d]pyrimidin-4(1H)-one]	> 10 µM
CC1c2nc3c(cnn3-c3ccccc3)c(=O)n2CCN1Cc1ccccc1 (racemic) [Compound I-33, (±)-8-Benzyl-9-methyl-1-phenyl-6,7,8,9-tetrahydropyrazino[1,2-a]pyrazolo[3,4-d]pyrimidin-4(1H)-one]	> 10 µM
CC(C)n1ncc2c(=O)n3c(nc21)CN(Cc1cncnc1)CC3 [Compound I-190, 1-Isopropyl-8-(pyrimidin-5-ylmethyl)-6,7,8,9-tetrahydropyrazino[1,2-a]pyrazolo[3,4-d]pyrimidin-4(1H)-one]	> 10 µM
CC(C)c1nn(C)c2c(=O)n3c(nc12)CN(Cc1ccccc1)CC3 [Compound I-46, 6-Benzyl-3-isopropyl-1-methyl-5,6,7,8-tetrahydropyrazino[1,2-a]pyrazolo[4,3-d]pyrimidin-10(1H)-one]	> 10 µM
CC1c2nc3c(cnn3-c3ccccc3)c(=O)n2CCN1C (racemic) [Compound I-22, (±)-8,9-Dimethyl-1-phenyl-6,7,8,9-tetrahydropyrazino[1,2-a]pyrazolo[3,4-d]pyrimidin-4(1H)-one]	> 10 µM
CC1c2nc3c(cnn3C)c(=O)n2CCN1Cc1ccccc1 (racemic) [Compound I-31, (±)-8-Benzyl-1,9-dimethyl-6,7,8,9-tetrahydropyrazino[1,2-a]pyrazolo[3,4-d]pyrimidin-4(1H)-one]	> 10 µM
COCCn1ncc2c(=O)n3c(nc21)CN(Cc1ccc2c(c1)OCO2)CC3 [Compound I-163, 8-(Benzo[d][1.3]dioxol-5-ylmethyl)-1-(2-methoxyethyl)-6,7,8,9-tetrahydropyrazino[1,2-a]pyrazolo[3,4-d]pyrimidin-4(1H)-one]	> 10 µM
CC1Cn2c(nc3c(cnn3C(C)C)c2=O)CN1C (racemic) [Compound I-104, (±)-1-Isopropyl-7,8-dimethyl-6,7,8,9-tetrahydropyrazino[1,2-a]pyrazolo[3,4-d]pyrimidin-4(1H)-one]	> 10 µM
CC(C)n1ncc2c(=O)n3c(nc21)CNC(Cc1ccccc1)C3 (racemic) [Compound I-109, (±)-7-Benzyl-1-isopropyl-6,7,8,9-tetrahydropyrazino[1,2-a]pyrazolo[3,4-d]pyrimidin-4(1H)-one]	> 10 µM
O=c1c2cnn(C3CCCC3)c2nc2n1CCN(CCc1ccc(Cl)cc1)C2 [Compound I-243, 8-(4-Chlorophenethyl)-1-cyclopentyl-6,7,8,9-tetrahydropyrazino[1,2-a]pyrazolo[3,4-d]pyrimidin-4(1H)-one]	1 to 10 µM
COc1ccc(CN2CCn3c(nc4c(cnn4C4CCOCC4)c3=O)C2)cc1 [Compound I-210, 8-(4-Methoxybenzyl)-1-(tetrahydro-2H-pyran-4-yl)-6,7,8,9-tetrahydropyrazino[1,2-a]pyrazolo[3,4-d]pyrimidin-4(1H)-one]	1 to 10 µM
CC(C)c1nn(C)c2c(=O)n3c(nc12)C(C)N(Cc1ccccc1)CC3 (racemic) [Compound I-47, (±)-6-Benzyl-3-isopropyl-1,5-dimethyl-5,6,7,8-tetrahydropyrazino[1,2-a]pyrazolo[4,3-d]pyrimidin-10(1H)-one]	> 10 µM
CC(C)n1ncc2c(=O)n3c(nc21)CN(Cc1ccc2c(c1)OCO2)CC3 [Compound I-170, 8-(Benzo[d][1,3]dioxol-5-ylmethyl)-1-isopropyl-6,7,8,9-tetrahydropyrazino[1,2-a]pyrazolo[3,4-d]pyrimidin-4(1H)-one]	1 to 10 µM
CC(C)c1nn(C)c2c(=O)n3c(nc12)CNCC3 [Compound I-13, 3-Isopropyl-1-methyl-5,6,7,8-tetrahydropyrazino[1,2-a]pyrazolo[4,3-d]pyrimidin-10(1H)-one]	> 10 µM
CC1Cn2c(nc3c(cnn3C(C)C)c2=O)CN1c1ccc(Cl)cc1 (racemic) [Compound I-150, (±)-8-(4-Chlorophenyl)-1-isopropyl-7-methyl-6,7,8,9-tetrahydropyrazino[1,2-a]pyrazolo[3,4-d]pyrimidin-4(1H)-one]	1 to 10 µM
CC(C)n1ncc2c(=O)n3c(nc21)CN(Cc1ccc(-c2ccccc2)cc1)CC3 [Compound I-66, 8-([1,1′-Biphenyl]-4-ylmethyl)-1-isopropyl-6,7,8,9-tetrahydropyrazino[1,2-a]pyrazolo[3,4-d]pyrimidin-4(1H)-one]	1 to 10 µM

Other lines, results leading:

IC50	Structure (SMILES)
1 to 10 µM	Cc1cnc(CN2CCn3c(nn4c(C5CCCC5)ncc4c3=O)C2)nc1 [Compound I-201]
< 1 µM	Cc1ccc(CN2CCn3c(nc4c(cnn4C4CCCC4)c3=O)C2)cn1 [Compound I-187, 1-Cyclopentyl-8-((6-methylpyridin-3-yl)methyl)-6,7,8,9-tetrahydropyrazino[1,2-a]pyrazolo[3,4-d]pyrimidin-4(1H)-one]
< 1 µM	CC1Cn2c(nc3c(cnn3C(C)C)c2=O)CN1Cc1cccc(F)c1 (racemic) [Compound I-149, (±)-8-(3-Fluorobenzyl)-1-isopropyl-7-methyl-6,7,8,9-tetrahydropyrazino[1,2-a]pyrazolo[3,4-d]pyrimidin-4(1H)-one]
1 to 10 µM	Cc1cnc(CN2CCn3c(nc4c(cnn4C(C)C)c3=O)C2)cn1 [Compound I-206, 1-Isopropyl-8-((5-methylpyrazin-2-yl)methyl)-6,7,8,9-tetrahydropyrazino[1,2-a]pyrazolo[3,4-d]pyrimidin-4(1H)-one]
< 1 µM	O=c1c2cnc(C3CCCC3)n2nc2n1CCN(Cc1ccc(Cl)cc1)C2 [Compound I-134, 7-(4-Chlorobenzyl)-3-cyclopentyl-8,9-dihydro-6H-imdazo[5,1-f]pyrazino[2,1-c][1,2,4]triazin-11(7H)-one]
< 1 µM	COc1ccc(CN2CCn3c(nn4c(C5CCCC5)ncc4c3=O)C2)cc1 [Compound I-133, 3-Cyclopentyl-7-(4-methoxybenzyl)-8,9-dihydro-6H-imidazo[5,1-f]pyrazino[2,1-c][1,2,4]triazin-11(7H)-one]
1 to 10 µM	COc1ccccc1N1CCn2c(nc3c(cnn3C(C)C)c2=O)C1 [Compound I-94, 1-Isopropyl-8-(2-methoxyphenyl)-6,7,8,9-tetrahydropyrazino[1,2-a]pyrazolo[3,4-d]pyrimidin-4(1H)-one]
1 to 10 µM	COc1ccc(C(C)N2CCn3c(nc4c(cnn4C4CCCC4)c3=O)C2)cc1 (racemic) [Compound I-114, (±)-1-Cyclopentyl-8-(1-(4-methoxyphenyl)ethyl)-6,7,8,9-tetrahydropyrazino[1,2-a]pyrazolo[3,4-d]pyrimidin-4(1H)-one]
1 to 10 µM	COCCn1ncc2c(=O)n3c(nc21)CN(Cc1cccc(Cl)c1)CC3 [Compound I-162, 8-(3-Chlorobenzyl)-1-(2-methoxyethyl)-6,7,8,9-tetrahydropyrazino[1,2-a]pyrazolo[3,4-d]pyrimidin-4(1H)-one]
1 to 10 µM	CCCn1ncc2c(=O)n3c(nc21)CN(Cc1ccc(Cl)c(Cl)c1)CC3 [Compound I-165, 8-(3,4-Dichlorobenzyl)-1-propyl-6,7,8,9-tetrahydropyrazino[1,2-a]pyrazolo[3,4-d]pyrimidin-4(1H)-one]
1 to 10 µM	CCCn1ncc2c(=O)n3c(nc21)CN(Cc1ccc(Cl)cc1)CC3 [Compound I-253, 8-(4-Chlorobenzyl)-1-propyl-6,7,8,9-tetrahydropyrazino[1,2-a]pyrazolo[3,4-d]pyrimidin-4(1H)-one]
1 to 10 µM	CC(C)Cc1nnc2c(=O)n3c(nn12)CN(CCc1ccccc1)CC3 [Compound I-227, 3-Isobutyl-7-phenethyl-8,9-dihydro-6H-pyrazino[2,1-c][1,2,4]triazolo[3,4-f][1,2,4]triazin-11(7H)-one]
1 to 10 µM	Cc1cnc(CN2CCn3c(nn4c(C(C)C)ncc4c3=O)C2)cn1 [Compound I-208, 3-Isopropyl-7-((5-methylpyrazin-2-yl)methyl)-8,9-dihydro-6H-imidazo[5,1-f]pyrazino[2,1-c][1,2,4]triazin-11(7H)-one]
1 to 10 µM	CC(C)n1ncc2c(=O)n3c(nc21)CN(c1ccccc1Cl)CC3 [Compound I-85, 8-(2-Chlorophenyl)-1-isopropyl-6,7,8,9-tetrahydropyrazino[1,2-a]pyrazolo[3,4-d]pyrimidin-4(1H)-one]
< 1 µM	O=c1c2cnn(C3CCCC3)c2nc2n1CCN(c1ccccc1)C2 [Compound I-95, 1-Cyclopentyl-8-phenyl-6,7,8,9-tetrahydropyrazino[1,2-a]pyrazolo[3,4-d]pyrimidin-4(1H)-one]
< 1 µM	CC(C)Cn1ncc2c(=O)n3c(nc21)CN(c1cccc(Cl)c1)CC3 [Compound I-89, 8-(3-Chlorophenyl)-1-isobutyl-6,7,8,9-tetrahydropyrazino[1,2-a]pyrazolo[3,4-d]pyrimidin-4(1H)-one]

Reference: US20160083391A1, “TRICYCLIC PIPERAZINE DERIVATIVE” (Sunovion Pharmaceuticals Inc., priority 2014, published 2016)
